Experimental data as given in patent US8658668B2, “PI3 kinase/mTOR dual inhibitor” (Eli Lilly and Company, priority 2011, dated 2014).

Assays:
[1] = test system: pS473 AKT; assay: In vivo target inhibition in U87MG tumors, pS473 AKT; settings: Mus musculus, U-87 MG; for inhibition at 0.5 mg/kg: 0.5 mg/kg oral; for inhibition at 1.5 mg/kg: 1.5 mg/kg oral; for inhibition at 3 mg/kg: 3 mg/kg oral; for inhibition at 6 mg/kg: 6 mg/kg oral; for inhibition at 10 mg/kg: 10 mg/kg oral; for inhibition at 12 mg/kg: 12 mg/kg oral
Description: (§1) Implant U87MG human glioblastoma cells (5×10^6) subcutaneously into the flank of athymic nude mice in 0.2 mL of matrigel. Ten days post-implantation, dose mice orally according to a time course, single dose/single time point, or dose response protocol for the determination of TMED50 (threshold minimum effective dose). Flash freeze tumors at harvest and collect blood for the determination of parent compound plasma exposure and the calculation of TMEC50 (threshold minimum effective concentration) in the case of dose response studies. Homogenize tumors in 500 μL of XY Lysis Buffer (10 μg/mL Leupeptin, 10 μg/mL Trypsin-Chymotrypsin Inhibitor, 10 μg/mL Tosyl phenyl-alanyl chloromethyl ketone, 10 μg/mL Aprotinin, 60 mM Beta-Glycerol Phosphate, 1% Triton X100, 25 mM Tris pH 7.5, 2.5 mM Pyrophosphate, 150 mM NaCl, 2 mM p-tosyl-L-arginine methyl ester, 15 mM para-nitrophenyl phosphate, 5 mM benzamidine, 1 mM sodium vanadate, 10 mM sodium fluoride, 50 μg/mL phenyl-methane sulfonyl fluoride, 1 mM 1,4-dithiothreitol (DTT), 15 mM EDTA pH 8.0, 5 mM EGTA pH 8.0, 1 μM Microcystin, 1 μM Okadaic Acid, and 1 Roche Complete protease inhibitor mini-tablet per 10 mL) using RNase Free Pellet Pestle (Kimble-Kontes). Aliquot lysates and either assay immediately or store at −80° C. for later testing. Use the multiplex format of Meso Scale Discovery (Gaithersburg, Md.) ELISA technology and measure in vivo target inhibition of PI3K and mTOR to assess effects on phosphorylation of the threonine 308 site of AKT, a downstream effector of PI3K; phosphorylation on the threonine 389 site of p70 S6K and on the serine 240/244 site of S6RP, downstream effectors of mTORC1; phosphorylation of the serine 473 site of AKT, a downstream effector of mTORC2. Add 20 μg of lysate to carbon electrode containing 96-well plates pre-spotted with the appropriate capture antibodies. Probe the protein of interest using a ruthenium labeled detection antibody. Pass current over the electrode in the presence of read buffer containing the co-reactant TPA, and quantitate and record the light generated by electro-chemiluminescence with the MSD Sector 6000 instrument. Calculate percent inhibitions relative to the vehicle control group and perform ANOVA analysis using the JMP software package for the determination of statistical significance.

[2] = test system: pT308 AKT; assay: In vivo target inhibition in U87MG tumors, pT308 AKT; settings: Mus musculus, U-87 MG; for inhibition at 0.5 mg/kg: 0.5 mg/kg oral; for inhibition at 1.5 mg/kg: 1.5 mg/kg oral; for inhibition at 3 mg/kg: 3 mg/kg oral; for inhibition at 6 mg/kg: 6 mg/kg oral; for inhibition at 10 mg/kg: 10 mg/kg oral; for inhibition at 12 mg/kg: 12 mg/kg oral
Description: as §1

[3] = molecular target: DNA-PK (Homo sapiens, UniProt P78527); assay: DNA-PK Z'LYTE in vitro enzyme assay; format: biochemical; settings: 25.0 micromolar ATP; read-out: absolute IC50
Description: Use the Z'LYTE® kinase assay format (Invitrogen) to determine IC50 values against DNA-PK for a compound. This is a fluorescence based, coupled enzyme assay format based on sensitivity of phosphorylated vs. nonphosphorylated dual labeled peptide substrate (Coumerin on amino terminus, Fluorescein on carboxy terminus) to proteolysis. Use the Fluorescence Resonance Energy Transfer (FRET) ratio to monitor DNA-PK activity where phosphorylation of the peptide protects the peptide from proteolytic cleavage and the FRET of the substrate is maintained. Perform the kinase reaction using 10 microliter reaction volume in a Corning®, low volume NBS, black 384 well plate (Corning® #3676). […] Read the plate on a fluorescence plate reader with 400 nm wavelength excitation filter and emission filters of 445 and 520 nm Use the signal measured with 445 nm filter (specific to Coumarin) over the signal measured with 520 filter (specific to fluorescein) to calculate the FRET ratio. […]

[4] = test system: RXF 631 human tumor xenograft cells; assay: Oncotest tumor clonogenic assay, RXF 631; format: cell-based; settings: colony formation, Renal RXF 631, hypernephroid adeno carcinoma, wd, read-out: Absolute IC50

CO[C@@H](C)Cn1c(=O)n(C)c2cnc3ccc(-c4cncc(C(C)(C)O)c4)cc3c21 [Example 1, 8-[5-(1-Hydroxy-1-methylethyl)pyridin-3-yl]-1-[(2S)-2-methoxypropyl]-3-methyl-1,3-dihydro-2H-imidazo[4,5-c]quinolin-2-one] gave an inhibition at 0.5 mg/kg ([1]; 0.5 hr post dose) of -9%, an inhibition at 0.5 mg/kg ([1]; 4 hr post dose) of -28% and an inhibition at 1.5 mg/kg ([1]; 0.5 hr post dose) of 34%. It also gave an inhibition at 1.5 mg/kg ([1]; 4 hr post dose) of -12%, an inhibition at 3 mg/kg ([1]; 0.25 hr post dose) of 23% and an inhibition at 3 mg/kg ([1]; 0.5 hr post dose) of 63%. It also gave an inhibition at 3 mg/kg ([1]; 1 hr post dose) of 12%, an inhibition at 3 mg/kg ([1]; 3 hr post dose) of -7% and an inhibition at 3 mg/kg ([1]; 4 hr post dose) of -3%. For the same compound, the inhibition at 6 mg/kg ([1]; 0.25 hr post dose) was 63%, the inhibition at 6 mg/kg ([1]; 0.5 hr post dose) was 77% and the inhibition at 6 mg/kg ([1]; 1 hr post dose) was 67%. The inhibition at 6 mg/kg ([1]; 2 hr post dose) was 51%, the inhibition at 6 mg/kg ([1]; 4 hr post dose) was -5% and the inhibition at 6 mg/kg ([1]; 6 hr post dose) was -8%. The inhibition at 6 mg/kg ([1]; 12 hr post dose) was -6%, the inhibition at 10 mg/kg ([1]; 0.5 hr post dose) was 90% and the inhibition at 10 mg/kg ([1]; 1 hr post dose) was 73%. The inhibition at 10 mg/kg ([1]; 2 hr post dose) was 66%, the inhibition at 10 mg/kg ([1]; 4 hr post dose) was 56% and the inhibition at 10 mg/kg ([1]; 8 hr post dose) was 13%. It also gave an inhibition at 12 mg/kg ([1]; 0.5 hr post dose) of 91%, an inhibition at 12 mg/kg ([1]; 4 hr post dose) of 44% and an inhibition at 0.5 mg/kg ([2]; 0.5 hr post dose) of 23%. The inhibition at 0.5 mg/kg ([2]; 4 hr post dose) was 1%, the inhibition at 1.5 mg/kg ([2]; 0.5 hr post dose) was 28% and the inhibition at 1.5 mg/kg ([2]; 4 hr post dose) was -8%. It also gave an inhibition at 3 mg/kg ([2]; 0.25 hr post dose) of 28%, an inhibition at 3 mg/kg ([2]; 0.5 hr post dose) of 43% and an inhibition at 3 mg/kg ([2]; 1 hr post dose) of 7%. The inhibition at 3 mg/kg ([2]; 3 hr post dose) was 7%, the inhibition at 3 mg/kg ([2]; 4 hr post dose) was -2% and the inhibition at 6 mg/kg ([2]; 0.25 hr post dose) was 47%. It also gave an inhibition at 6 mg/kg ([2]; 0.5 hr post dose) of 61%, an inhibition at 6 mg/kg ([2]; 1 hr post dose) of 41% and an inhibition at 6 mg/kg ([2]; 2 hr post dose) of 32%. It also gave an inhibition at 6 mg/kg ([2]; 4 hr post dose) of 1%, an inhibition at 6 mg/kg ([2]; 6 hr post dose) of -4% and an inhibition at 6 mg/kg ([2]; 12 hr post dose) of -16%. The inhibition at 10 mg/kg ([2]; 0.5 hr post dose) was 88%, the inhibition at 10 mg/kg ([2]; 1 hr post dose) was 71% and the inhibition at 10 mg/kg ([2]; 2 hr post dose) was 53%. The inhibition at 10 mg/kg ([2]; 4 hr post dose) was 44%, the inhibition at 10 mg/kg ([2]; 8 hr post dose) was 13% and the inhibition at 12 mg/kg ([2]; 0.5 hr post dose) was 79%. For the same compound, the inhibition at 12 mg/kg ([2]; 4 hr post dose) was 43%, the IC50 [3] was 4.24 nM and the IC50 [4] was 80 nM.
